The record followed here is US20260373266A1, “PROTEIN DEGRADERS AND USES THEREOF” (KYMERA THERAPEUTICS, INC., priority 2022, published 2026).

Where two headings read alike, the source gives them in different places. Some results are limits rather than exact numbers.

For this experiment, the target named is T1, DCAF1 WD40 domain (residues 1077-1390) (Homo sapiens, UniProt Q9Y4B6).
T1 construct: DCAF1 WD40 domain (residues 1077-1390)
The experiment in a line: DCAF1 binding assay by SPR (Biacore 8K+), DCAF1-3 KD. The conditions noted are these: 25 °C. (In SPR one partner is held on a chip, and binding of the other changes the refractive index at the surface.)

T1 sequence (Q9Y4B6 1077-1390): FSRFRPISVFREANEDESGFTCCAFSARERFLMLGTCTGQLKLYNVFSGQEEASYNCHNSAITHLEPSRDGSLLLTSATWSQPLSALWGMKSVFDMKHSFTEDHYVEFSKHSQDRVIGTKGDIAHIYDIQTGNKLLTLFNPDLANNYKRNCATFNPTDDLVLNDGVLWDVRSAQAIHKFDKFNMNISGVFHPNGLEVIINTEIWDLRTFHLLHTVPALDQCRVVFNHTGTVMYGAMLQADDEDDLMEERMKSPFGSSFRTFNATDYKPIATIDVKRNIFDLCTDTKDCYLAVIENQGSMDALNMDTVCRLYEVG

With `COCCOCC[C@@H]1CN(c2cc(N3CCCCC3)ccn2)[C@H]2CCCN(c3cccc(F)c3)[C@@H]12` [I-934], the equilibrium dissociation constant (Kd) (read-out: DCAF1-3 SPR (KD)) is less than 10 µM.
The same measure, in the same setting: under `NC(=O)C[C@H](NC(=O)c1cn[nH]c1[C@@H]1CCCCO1)c1cccc(Cl)c1` [I-347] stands greater than 200 µM; under `CN(c1cccc(F)c1)C1CCCN(c2cc(N3CCCCC3)ccn2)C1` (centres unmarked) [I-660], greater than 200 µM.
`Cc1ccc(F)c(-c2[nH]ncc2C(=O)N[C@@H](CC(N)=O)c2cccc(Cl)c2)c1` [I-505]: the dissociation constant (Kd) (read-out: DCAF1-3 SPR (KD)) is less than 10 µM.
Same read-out and setting: under `NC[C@@H]1C[C@H](Nc2cc(N3CCCCC3)ccn2)CN(c2cccc(F)c2)C1` [I-1042] stands 10 to 100 µM.
On the same count and under the same terms, under `Fc1cccc(N2CCC[C@@H](Nc3cnnc(N4CCOCC4)c3)C2)c1` [I-381] stands greater than 200 µM; under `C=CC(=O)NCN1CCN(c2ccnc(N[C@@H]3CCCN(c4cccc(F)c4)C3)c2)CC1` [I-466], 10 to 100 µM.
On the same count and under the same terms, under `NS(=O)(=O)CCc1cccc(N2CCC[C@H]3[C@@H]2CCN3c2cc(N3CCCCC3)ccn2)c1` [I-964] stands less than 10 µM; under `Cc1c(F)ccc(F)c1-c1c(C(=O)N[C@@H](CC(N)=O)c2cccc(Cl)c2)cn(C)c1C(=O)c1ccc(OCCOCCOCCOCCOCCOCCOCCN)cc1` [I-1015], less than 10 µM; under `c1ccc(CN2CCc3ncnc(N4CCC[C@@H](Nc5cc(N6CCOCC6)ccn5)C4)c3C2)cc1` [I-870], 10 to 100 µM.
With `CCN1CCN(c2cc(N[C@@H]3CCCN(c4cccc(F)c4)C3)ncn2)CC1` [I-375], the Kd (read-out: DCAF1-3 SPR (KD)) was greater than 200 µM.
On the same count and under the same terms, under `COc1ccc(F)cc1N1CCC[C@@H]2[C@H]1CCN2c1cc(N2CCCCC2)ccn1` [I-796] stands 10 to 100 µM; under `NC[C@H]1CC[C@H](Nc2cc(N3CCCCC3)ccn2)CN1c1cccc(F)c1` [I-1021], 10 to 100 µM.
As to `Fc1cccc(N2CCC[C@H](Nc3cc(N4CCOCC4)ccn3)C2)c1` [I-499], where the note is “read-out: DCAF1-3 SPR (KD)”, the Kd is 10 to 100 µM.
On the same count and under the same terms, with `CCCCN1CCN(c2ccnc(NC3CCCN(c4cccc(F)c4)C3)n2)CC1` (centres unmarked) [I-26] the figure was greater than 200 µM.
Still for that read-out and setting: with `O=[N+]([O-])c1ccc(N2CCC[C@@H](n3ccc4c(N5CCCCC5)ccnc43)C2)cc1F` [I-917] the figure was less than 10 µM; with `Fc1cccc(N2CCC[C@@H](Nc3ccnc(N4CCOCC4)n3)C2)c1` [I-321], greater than 200 µM.
On to `c1ccc2ncc(N3CCC[C@@H](Nc4cc(N5CCOCC5)ncn4)C3)cc2c1` [I-399], for which the Kd (read-out: DCAF1-3 SPR (KD)) is greater than 200 µM.
Same read-out and setting: under `O=c1cc(N2CCC[C@@H](Nc3cc(N4CCCCC4)ccn3)C2)cc[nH]1` [I-945] stands 10 to 100 µM; under `N#Cc1ccc([C@H](CC(N)=O)NC(=O)c2c[nH]nc2-c2ccccc2F)cc1` [I-118], less than 10 µM.
As to `COCCN1CCN(c2ccnc(N[C@@H]3CCCN(c4cccc(F)c4)C3)n2)CC1` [I-320], where the note is “read-out: DCAF1-3 SPR (KD)”, the equilibrium dissociation constant (Kd) is 10 to 100 µM.
For `NC(=O)C[C@H](NC(=O)c1cnn(Cc2ccccc2)c1-c1ccccc1F)c1cccc(Cl)c1` [I-140], the dissociation constant Kd (read-out: DCAF1-3 SPR (KD)) is greater than 200 µM.
Consider `NC(=O)C[C@H](NC(=O)c1c[nH]nc1-c1ccc2[nH]cnc2c1)c1cccc(Cl)c1` [I-240], for which the Kd (read-out: DCAF1-3 SPR (KD)) was greater than 200 µM.
As for `Cc1c(F)ccc(F)c1-c1c(C(=O)N[C@@H](CC(N)=O)c2cccc(Cl)c2)c[nH]c1C(=O)c1ccc(CCCOCCOCCOCCN)cc1` [I-806], where the note is “read-out: DCAF1-3 SPR (KD)”, the Kd is less than 10 µM.
Same read-out and setting: with `NCCCCCCCCCCCCCCCCCC1CCN(c2ccnc(N3CC[C@@H]4[C@H]3CCCN4c3cccc(F)c3)c2)CC1` [I-719] the figure was greater than 200 µM.
On the same count and under the same terms, with `c1ccc2c(N3CCC[C@@H](Nc4cc(N5CCOCC5)ncn4)C3)ccnc2c1` [I-392] the figure was greater than 200 µM.
Still for that read-out and setting: under `c1ccc2c(N3CCC[C@@H](Nc4cc(N5CCOCC5)ncn4)C3)nccc2c1` [I-390] stands greater than 200 µM; under `Fc1cccc(N2CCNC(Cc3cc(N4CCCCC4)ccn3)C2)c1` (centres unmarked) [I-743], greater than 200 µM; under `COCCN1CCN(c2ccnc(NC3CCCN(c4cccc(F)c4)C3)n2)CC1` (centres unmarked) [I-28], 10 to 100 µM.
Consider `COCCC(=O)c1[nH]cc(C(=O)N[C@@H](CC(N)=O)c2cccc(Cl)c2)c1-c1ccccc1F` [I-524], for which the Kd (read-out: DCAF1-3 SPR (KD)) is less than 10 µM.
Still for that read-out and setting: under `NC(=O)C[C@H](NC(=O)c1[nH]nc(NC2CCCCC2)c1-c1ccccc1F)c1cccc(Cl)c1` [I-171] stands greater than 200 µM; under `c1cc(N2CCOCC2)cc(N[C@@H]2CCCN(c3ncnc4c3ncn4[C@@H]3CCCCO3)C2)n1` [I-684], 10 to 100 µM.
Still for that read-out and setting: with `c1cc(N2CCOCC2)cc(N[C@@H]2CCCN(c3cnn[nH]3)C2)n1` [I-534] the figure was greater than 200 µM.
For the molecule `NC(=O)C[C@H](NC(=O)c1cnn(CC2CCCCC2)c1-c1ccccc1F)c1cccc(Cl)c1` [I-165], the dissociation constant Kd (read-out: DCAF1-3 SPR (KD)) was greater than 200 µM.
The same measure, in the same setting: with `C[S+]([O-])CN(c1cc(N2CCCOC2)ccn1)[C@H]1CCCN(c2cccc(F)c2)C1` (some centres unmarked) [I-539] the figure was 10 to 100 µM; with `NC(=O)C[C@H](C(=O)Nc1cnn(Cc2ccccc2)c1-c1ccccc1F)c1cccc(Cl)c1` [I-153], greater than 200 µM.
Still for that read-out and setting: with `C=CC(=O)N1CCC[C@H](N(C)c2ccnc(N[C@@H]3CCCN(c4cccc(F)c4)C3)c2)C1` [I-481] the figure was greater than 200 µM; with `Cc1cccc([C@H](CC(N)=O)NC(=O)c2cn[nH]c2-c2ccccc2F)c1` [I-108], less than 10 µM.
In the case of `Fc1cccc(N2CCC[C@@H]3[C@H]2CCN3c2cc(N3CCCCC3)ccn2)c1` [I-579, (3aR,7aR)-4-(3-fluorophenyl)-1-(4-(piperidin-1-yl)pyridin-2-yl)octahydro-1H-pyrrolo[3,2-b]pyridine], the dissociation constant Kd (DCAF1-3 SPR (KD)) is less than 10 µM.
Turning to `Cc1cc2nccn2cc1N1CCC[C@@H](Nc2cc(N3CCOCC3)ccn2)C1` [I-765], for the setting “read-out: DCAF1-3 SPR (KD)”, the Kd was greater than 200 µM.
Same read-out and setting: under `NC[C@@H]1CCN(c2cccc(F)c2)C[C@@H]1Nc1cc(N2CCCCC2)ccn1` [I-1045] stands 100 to 200 µM; under `NC(=O)[C@H]1C[C@@H](Nc2cc(N3CCCCC3)ccn2)CN(c2cccc(F)c2)C1` [I-1032], 10 to 100 µM.
`NCCOCCOCCOCCOCCOCCOCC(=O)c1[nH]cc(C(=O)N[C@@H](CC(N)=O)c2cccc(Cl)c2)c1-c1ccccc1F` [I-676]: the equilibrium dissociation constant (Kd) (read-out: DCAF1-3 SPR (KD)) is less than 10 µM.
The same measure, in the same setting: under `C=CC(=O)N1CCC[C@H](c2n[nH]cc2C(=O)N[C@@H](CC(N)=O)c2cccc(Cl)c2)C1` [I-483] stands greater than 200 µM; under `C=CC(=O)N1CC2(CCN(c3ccnc(N[C@@H]4CCCN(c5cccc(F)c5)C4)c3)CC2)C1` [I-465], greater than 200 µM; under `CN1CCN(c2ccc(N3CCC[C@@H](Nc4cc(N5CCOCC5)ccn4)C3)nc2)CC1` [I-686], greater than 200 µM.
For `FC(F)(F)Oc1ccc(N2CCC[C@@H](Nc3cc(N4CCOCC4)ccn3)C2)nc1` [I-426], the dissociation constant Kd (read-out: DCAF1-3 SPR (KD)) is 10 to 100 µM.
With `Clc1cccc(N2CCC[C@@H]3[C@H]2CCN3c2cc(N3CC4CC(C4)C3)ccn2)c1` [I-707], the equilibrium dissociation constant (Kd) (read-out: DCAF1-3 SPR (KD)) was greater than 200 µM.
Still for that read-out and setting: with `NCCOCCOCCOCCOCCC1CCN(c2ccnc(N3CC[C@@H]4[C@H]3CCCN4c3cccc(F)c3)c2)CC1` [I-650] the figure was greater than 200 µM; with `NC(=O)C[C@H](NC(=O)c1cnn(CC2CCCC2)c1-c1ccccc1F)c1cccc(Cl)c1` [I-166], greater than 200 µM; with `Oc1ccc(N2CCC[C@@H](Nc3cc(N4CCOCC4)ncn3)C2)cc1` [I-14], 100 to 200 µM.
Regarding `O[C@@H]1C[C@@H](Nc2cc(N3CCOCC3)ncn2)CN(c2cccc(F)c2)C1` [I-163], the dissociation constant (Kd) (read-out: DCAF1-3 SPR (KD)) was greater than 200 µM.
On the same count and under the same terms, under `NC(=O)C[C@H](NC(=O)c1cn[nH]c1-c1ccc(O)cc1)c1cccc(Cl)c1` [I-333] stands 10 to 100 µM.
Turning to `NC(=O)C[C@H](NC(=O)c1n[nH]c2ccccc12)c1cccc(Cl)c1` [I-297], the Kd (read-out: DCAF1-3 SPR (KD)) is greater than 200 µM.
The same measure, in the same setting: with `CS(=O)(=O)N(c1cc(N2CCOCC2)ccn1)[C@@H]1CCCN(c2cccc(F)c2)C1` [I-304] the figure was greater than 200 µM.
`CC(C)Oc1cncc(N2CCC[C@@H](Nc3cc(N4CCOCC4)ccn3)C2)c1` [I-433]: the dissociation constant (Kd) (read-out: DCAF1-3 SPR (KD)) fell in the range of 100 to 200 µM.
Same read-out and setting: under `NC(=O)C[C@H](NC(=O)c1cn[nH]c1-c1ncccc1F)c1cccc(Cl)c1` [I-357] stands greater than 200 µM; under `O=C(Nc1ccc(F)c(Cl)c1)C1CCN(c2ccnc(-c3ccccc3)n2)CC1` [I-21], greater than 200 µM; under `C=CC(=O)Nc1cccc(N2CCC[C@@H](Nc3cc(N4CCOCC4)ccn3)C2)c1` [I-450], greater than 200 µM.
As for `Cc1ccc([C@H](CC(N)=O)NC(=O)c2cn[nH]c2-c2ccccc2F)cc1` [I-101], for the setting “read-out: DCAF1-3 SPR (KD)”, the Kd was 10 to 100 µM.
The same measure, in the same setting: under `Cc1c(F)ccc(F)c1-c1c(C(=O)N[C@@H](CC(N)=O)c2cccc(Cl)c2)c[nH]c1C(=O)c1cccc(O)c1` [I-792] stands less than 10 µM; under `C[C@H]1CC[C@@H](c2[nH]ncc2C(=O)N[C@@H](CC(N)=O)c2cccc(Cl)c2)CC1` [I-742], less than 10 µM; under `CCN(c1cc(N2CCOCC2)ncn1)[C@@H]1CCCN(c2cccc(F)c2)C1` [I-386], greater than 200 µM.
For the molecule `NCCNC(=O)c1ccc(N2CCCCC2)cc1N[C@@H]1CCCN(c2cccc(F)c2)C1` [I-991], where the note is “read-out: DCAF1-3 SPR (KD)”, the equilibrium dissociation constant (Kd) fell in the range of 10 to 100 µM.
The same measure, in the same setting: with `N#Cc1nccc(CN2CCC[C@@H](Nc3cc(N4CCOCC4)ccn3)C2)n1` [I-476] the figure was greater than 200 µM; with `Fc1cccc(N2CCC[C@@H](N(c3cccnc3)c3cc(N4CCOCC4)ccn3)C2)c1` [I-306], greater than 200 µM; with `C=CC(=O)Nc1ccc2[nH]cc(C(=O)N[C@@H](CC(N)=O)c3cccc(Cl)c3)c2c1` [I-475], greater than 200 µM.
In the case of `NC(=O)C[C@H](NC(=O)c1c[nH]c(C(=O)c2ccccc2)c1-c1ccccc1F)c1cccc(Cl)c1` [I-603], for the setting “read-out: DCAF1-3 SPR (KD)”, the Kd is less than 10 µM.
As for `O=C1Nc2cnc(N3CCCCC3)cc2NC12CCCN(c1cccc(F)c1)C2` (centres unmarked) [I-992], the equilibrium dissociation constant (Kd) (read-out: DCAF1-3 SPR (KD)) was 10 to 100 µM.
As for `N#Cc1cccc(-c2[nH]ncc2C(=O)N[C@@H](CC(N)=O)c2cccc(Cl)c2)c1` [I-337], the equilibrium dissociation constant (Kd) (read-out: DCAF1-3 SPR (KD)) was less than 10 µM.
On to `Cc1c(F)ccc(F)c1-c1c(C(=O)N[C@@H](CC(=O)N2CC[C@@H](O)C2)c2cccc(Cl)c2)cn(C)c1C#N` [I-1005], for which, where the note is “read-out: DCAF1-3 SPR (KD)”, the dissociation constant (Kd) was less than 10 µM.
For `C[n+]1ccc(N2CCOCC2)cc1N[C@@H]1C[C@@H](O)CN(c2cccc(F)c2)C1` [I-520], the Kd (read-out: DCAF1-3 SPR (KD)) was greater than 200 µM.
Regarding `Fc1cccc(N2CCC[C@@H](Oc3cc(N4CCOCC4)ccn3)C2)c1` [I-81], the equilibrium dissociation constant (Kd) (read-out: DCAF1-3 SPR (KD)) was greater than 200 µM.
On the same count and under the same terms, under `CC(c1cc(N2CCOCC2)ccn1)(C1CCCN(c2cccc(F)c2)C1)C(F)(F)F` (centres unmarked) [I-263] stands greater than 200 µM.

As a reminder, the Kd is the concentration at which binding is half-saturated.
